According to ChEMBL document CHEMBL1201862, “PubChem BioAssay data set” (2004):
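Method: 48-hour compound exposure of cells in 96-well plates, five concentrations, linear interpolation of endpoints. GI50 is the concentration that inhibits growth by half.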 The source made the active and inactive calls. No stated cut-off is given here; in the data, active = GI50 up to about 1.1 µM and inactive = higher.

Columns and labels:
Assay in all cases: DTP human tumour cell line panel, 48 h
A498 = tested on: A498
BT-549 = tested on: BT-549
CAKI-1 = tested on: CAKI-1
CCRF-CEM = tested on: CCRF-CEM
DU-145 = tested on: DU-145
HCC 2998 = tested on: HCC 2998
HOP-92 = tested on: HOP-92
Hs-578T = tested on: Hs-578T
Malme-3M = tested on: Malme-3M
NCI-H226 = tested on: NCI-H226
NCI-H460 = tested on: NCI-H460
NCI/ADR-RES = tested on: NCI/ADR-RES
OVCAR-4 = tested on: OVCAR-4
OVCAR-5 = tested on: OVCAR-5
SF-295 = tested on: SF-295
SK-MEL-2 = tested on: SK-MEL-2
SNB-75 = tested on: SNB-75
T47D = tested on: T47D
TK-10 = tested on: TK-10
UACC-62 = tested on: UACC-62

Structure (SMILES)	GI50 (A498)	GI50 (BT-549)	GI50 (CAKI-1)	GI50 (CCRF-CEM)	GI50 (DU-145)	GI50 (HCC 2998)	GI50 (HOP-92)	GI50 (Hs-578T)	GI50 (Malme-3M)	GI50 (NCI-H226)	GI50 (NCI-H460)	GI50 (NCI/ADR-RES)	GI50 (OVCAR-4)	GI50 (OVCAR-5)	GI50 (SF-295)	GI50 (SK-MEL-2)	GI50 (SNB-75)	GI50 (T47D)	GI50 (TK-10)	GI50 (UACC-62)
C[N+]12CCCCC1C(COc1cccc3cccnc13)CCC2 (stereo not given)	> 100 µM (inactive)	42 µM (inactive)	> 100 µM (inactive)	> 100 µM (inactive)	> 100 µM (inactive)	> 100 µM (inactive)	15.9 µM (inactive)	> 100 µM (inactive)	> 100 µM (inactive)	59.6 µM (inactive)	58.6 µM (inactive)	> 100 µM (inactive)	> 100 µM (inactive)	> 100 µM (inactive)	> 100 µM (inactive)	> 100 µM (inactive)	> 100 µM (inactive)	> 100 µM (inactive)	> 100 µM (inactive)	> 100 µM (inactive)
CN(C)CCCCCNc1c2ccccc2nc2cccc([N+](=O)[O-])c12	0.00258 µM (active)	0.000946 µM (active)	0.00229 µM (active)	0.024 µM (active)	0.000404 µM (active)	0.00331 µM (active)	0.00329 µM (active)	0.00197 µM (active)	0.00185 µM (active)	0.0214 µM (active)	0.000223 µM (active)	0.00119 µM (active)	0.000653 µM (active)	0.00182 µM (active)	0.00105 µM (active)	0.00107 µM (active)	0.00163 µM (active)	0.00973 µM (active)	0.00337 µM (active)	0.00183 µM (active)
CCOC(=O)c1c2ccccc2n2c(=O)n(C)nnc12	> 100 µM (inactive)	> 100 µM (inactive)	> 100 µM (inactive)	> 100 µM (inactive)	> 100 µM (inactive)	> 100 µM (inactive)	> 100 µM (inactive)	> 100 µM (inactive)	> 100 µM (inactive)	> 100 µM (inactive)	> 100 µM (inactive)	> 100 µM (inactive)	> 100 µM (inactive)	> 100 µM (inactive)	40.1 µM (inactive)	> 100 µM (inactive)	46.3 µM (inactive)	> 100 µM (inactive)	> 75.5 µM (inactive)	> 100 µM (inactive)
O=[N+]([O-])C(=C(Sc1ccccc1)Sc1ccccc1)C(Cl)=C(Cl)Cl	3.44 µM (inactive)	1.18 µM (inactive)	0.476 µM (active)	0.0189 µM (active)	1.11 µM (active)	2.39 µM (inactive)	1.29 µM (inactive)	3.32 µM (inactive)	0.458 µM (active)	0.614 µM (active)	5.74 µM (inactive)	0.652 µM (active)	0.401 µM (active)	0.486 µM (active)	11.9 µM (inactive)	2.26 µM (inactive)	4.54 µM (inactive)	0.278 µM (active)	0.0948 µM (active)	0.75 µM (active)
C/C=C/[C@H]1O[C@@](O)([C@@H](C)[C@H](O)[C@H](C)[C@H]2OC(=O)/C(OC)=C/C(C)=C/[C@@H](C)[C@@H](O)[C@@H](CC)[C@@H](O)[C@H](C)C/C(C)=C/C=C/[C@@H]2OC)C[C@H](OC2CC(O)C(O)C(C)O2)[C@@H]1C (stereo not given in full)	5.01 µM (inactive)	< 0.0075 µM (active)	< 0.0075 µM (active)	< 0.0075 µM (active)	0.256 µM (active)	< 0.0075 µM (active)	0.19 µM (active)	< 0.0075 µM (active)	< 0.0075 µM (active)	< 0.0075 µM (active)	< 0.0075 µM (active)	< 0.0075 µM (active)	0.244 µM (active)	3.49 µM (inactive)	< 0.0075 µM (active)	< 0.0075 µM (active)	8.59 µM (inactive)	< 0.0075 µM (active)	9.48 µM (inactive)	< 0.0075 µM (active)
C=CCN(C(C)=O)c1cc(OCc2ccccc2)c2c(c1)c(C)cn2S(=O)(=O)c1ccccc1	5.16 µM (inactive)	11.4 µM (inactive)	6.59 µM (inactive)	4.11 µM (inactive)	9.75 µM (inactive)	22.1 µM (inactive)	5.96 µM (inactive)	7.4 µM (inactive)	6.58 µM (inactive)	7.29 µM (inactive)	4.75 µM (inactive)	4.95 µM (inactive)	5.42 µM (inactive)	11.8 µM (inactive)	3.94 µM (inactive)	3.11 µM (inactive)	6.18 µM (inactive)	3.26 µM (inactive)	39.6 µM (inactive)	7.1 µM (inactive)
C=CCc1[nH]c2c(OCc3ccccc3)cc(N(CC=C)C(C)=O)cc2c1C	12.5 µM (inactive)	15.8 µM (inactive)	15.5 µM (inactive)	22.3 µM (inactive)	14.1 µM (inactive)	15.1 µM (inactive)	12.7 µM (inactive)	14.2 µM (inactive)	16.4 µM (inactive)	17.6 µM (inactive)	14.8 µM (inactive)	14.3 µM (inactive)	8.79 µM (inactive)	14.1 µM (inactive)	13 µM (inactive)	12.4 µM (inactive)	10.7 µM (inactive)	3.79 µM (inactive)	16.4 µM (inactive)	14 µM (inactive)
